pEC50, pIC50, pKi: −log10 of the molar value.
Key:
[1] = target: T1, Human immunodeficiency virus type 1 protease (Human immunodeficiency virus 1, UniProt Q72874); test: Inhibitory activity was determined against HIV-1 protease.
[2] = target: Human immunodeficiency virus type 1 protease (Human immunodeficiency virus 1) (UniProt Q72874); test: Concentration that inhibits cellular growth of MT-4 cells acutely infected with HIV-1 RFstrain by 50%; assay type: functional, cell-based; conditions: MT4
[3] = Cytotoxic activity was determined against HIV-1 infected MT-4 cells.; assay type: functional, cell-based; conditions: MT4
[4] = system: C8166; test: Antiviral activity against HIV-2red in C8166 cell line; assay type: functional; conditions: Homo sapiens, read-out: ED50 (the source's name)
[5] = system: C8166; test: Antiviral activity against SIV-mac251 in C8166 cell line; assay type: functional; conditions: Homo sapiens, read-out: ED50 (the source's name)
[6] = system: C8166; test: Cytotoxic activity against HIV-1 RF in […] cell line; assay type: functional; conditions: Homo sapiens, read-out: CD50 (the source's name)
[7] = system: C8166; test: Antiviral activity against HIV-1 RF in […] cell line; assay type: functional; conditions: Homo sapiens, read-out: ED50 (the source's name)
[8] = system: CCRF-CEM; test: Antiviral activity against HIV-1 HIB in CEM cell line; assay type: functional; conditions: Homo sapiens, read-out: ED50 (the source's name)
[9] = system: H9; test: Antiviral activity against HIV-1HIB in H9 cell line; assay type: functional; conditions: Homo sapiens, read-out: ED50 (the source's name)
[10] = system: H9; test: Antiviral activity against HIV-1MN in H9 cell line; assay type: functional; conditions: Homo sapiens, read-out: ED50 (the source's name)
[11] = system: H938 cell line; test: Antiviral activity against HIV-1CCl protease in H938 cell line; assay type: functional; conditions: Homo sapiens, read-out: ED50 (the source's name)
[12] = target: T1, Human immunodeficiency virus type 1 protease; test: Inhibitory activity against HIV-1 protease
[13] = system: JM1; test: Antiviral activity against HIV-1 QB8F in JM cell line; assay type: functional; conditions: Homo sapiens, read-out: ED50 (the source's name)
[14] = system: MT4; test: Antiviral activity against HIV-1 RF in MT-4 cell line; assay type: functional; conditions: Homo sapiens, read-out: ED50 (the source's name)
[15] = system: MT4; test: Cytotoxic activity against HIV-1 in MT-4 cell line; assay type: functional; conditions: Homo sapiens, read-out: CD50 (the source's name)
[16] = system: Human immunodeficiency virus 1; test: Antiviral activity against HIV-1 108/F in PBMC 3 cell line; assay type: functional; conditions: Human immunodeficiency virus 1, PBMC; read-out: ED50 (the source's name)
[17] = system: Human immunodeficiency virus 1; test: Antiviral activity against HIV-1CC in PBMC cell line; Out of 7 days; assay type: functional; conditions: Human immunodeficiency virus 1, PBMC, 168 h; read-out: ED50 (the source's name)
[18] = system: Human immunodeficiency virus 1; test: Antiviral activity against HIV-1CCl in PBMC cell line; Out of 21 days; assay type: functional; conditions: Human immunodeficiency virus 1, PBMC, 504 h; read-out: ED50 (the source's name)
[19] = system: Human immunodeficiency virus 1; test: Antiviral activity against HIV-1CCL in PBMC 2 cell line; Out of 14 days; assay type: functional; conditions: Human immunodeficiency virus 1, PBMC, 336 h; read-out: ED50 (the source's name)
[20] = system: H9; test: Antiviral activity against HIV-1U455 in H9 cell line; assay type: functional; conditions: Homo sapiens, read-out: ED50 (the source's name)
[21] = system: JM1; test: Cytotoxic activity against HIV-1QB8F in JM cell line; assay type: functional; conditions: Homo sapiens, read-out: CD50 (the source's name)

CC(C)[C@H](NC(=O)OCc1ccccc1)C(=O)NC(Cc1ccc(OCc2ccccc2)cc1)C(=O)C(F)(F)C(=O)N[C@@H](C(=O)O)C(C)C (stereo not given in full)
pIC50 [1]: 8.40
ED50 [2]: 50 µM
CD50 [3]: > 100 µM

COCCOCCO[C@H](NC(=O)C(F)(F)C(=O)C(Cc1ccc(OCc2ccccc2)cc1)NC(=O)[C@@H](NC(=O)OCc1ccccc1)C(C)C)C(C)C (stereo not given in full)
pIC50 [1]: > 7.82
ED50 [2]: 0.045 µM
CD50 [3]: 2.8 µM

CC(C)C[C@H](COCc1ccccc1)NC(=O)C(F)(F)C(=O)C(Cc1ccc(OCc2ccccc2)cc1)NC(=O)[C@@H](NC(=O)OCc1ccccc1)C(C)C (stereo not given in full)
pIC50 [1]: 8.74
ED50 [2]: 0.2 µM
CD50 [3]: 15 µM

CC(C)C(C=O)NC(=O)C(F)(F)C(=O)C(Cc1ccc(OCc2ccccc2)cc1)NC(=O)[C@@H](NC(=O)OCc1ccccc1)C(C)C (stereo not given in full)
pIC50 [1]: 8.40
ED50 [2]: 0.018 µM
CD50 [3]: 3.2 µM

CC(C)[C@H](NC(=O)OCc1ccccc1)C(=O)NC(Cc1ccc(OCc2ccccc2)cc1)C(=O)C(F)(F)C(=O)N[C@H](COCc1ccccc1)C(C)C (stereo not given in full)
pIC50 [1]: 7.40
ED50 [2]: 0.35 µM
CD50 [3]: 35 µM

CC(C)[C@H](NC(=O)OCc1ccccc1)C(=O)NC(Cc1ccc(OCc2ccccc2)cc1)C(=O)C(F)(F)C(=O)N[C@@H](COCc1ccccc1)c1ccccc1 (stereo not given in full)
pIC50 [1]: 9.00
ED50 [2]: 0.09 µM
CD50 [3]: 23 µM

CC(C)[C@H](COCc1ccccc1)NC(=O)C(F)(F)[C@H](O)C(Cc1ccc(OCc2ccccc2)cc1)NC(=O)[C@@H](NC(=O)OCc1ccccc1)C(C)C (stereo not given in full)
pIC50 [1]: 8.30
ED50 [2]: > 100 µM
CD50 [3]: > 100 µM

CC(C)CNC(=O)C(F)(F)C(=O)C(Cc1ccc(OCc2ccccc2)cc1)NC(=O)[C@@H](NC(=O)OCc1ccccc1)C(C)C (stereo not given in full)
pIC50 [1]: 8.30
ED50 [2]: > 44 µM
CD50 [3]: 44 µM

CC(C)(C)NC(=O)[C@@H]1C[C@@H]2CCCC[C@@H]2CN1C[C@@H](O)[C@H](Cc1ccccc1)NC(=O)[C@H](CC(N)=O)NC(=O)c1ccc2ccccc2n1
ED50 [2]: 0.006 µM
CD50 [3]: > 10 µM

CC(C)[C@H](COCc1ccccc1)NC(=O)C(F)(F)C(=O)C(Cc1ccc(OCc2ccccc2)cc1)NC(=O)[C@H](NC(=O)OCc1ccccc1)C(C)C (stereo not given in full)
pIC50 [1]: 7.22
ED50 [2]: > 95 µM
CD50 [3]: 95 µM

CC(C)[C@H](COCc1ccccc1)NC(=O)C(F)(F)[C@@H](O)C(Cc1ccc(OCc2ccccc2)cc1)NC(=O)[C@@H](NC(=O)OCc1ccccc1)C(C)C (stereo not given in full)
pIC50 [1]: 8.18
ED50 [2]: > 100 µM
CD50 [3]: > 100 µM

COC(=O)[C@H](NC(=O)C(F)(F)C(=O)C(Cc1ccc(OCc2ccccc2)cc1)NC(=O)[C@@H](NC(=O)OCc1ccccc1)C(C)C)C(C)C (stereo not given in full)
pIC50 [1]: > 8.00
ED50 [2]: 0.022 µM
CD50 [3]: 2.6 µM

COCCOCO[C@H](NC(=O)C(F)(F)C(=O)C(Cc1ccc(OCc2ccccc2)cc1)NC(=O)[C@@H](NC(=O)OCc1ccccc1)C(C)C)C(C)C (stereo not given in full)
pIC50 [1]: > 8.00
ED50 [2]: 0.015 µM
CD50 [3]: 3.4 µM

CC(C)[C@H](CCc1ccccc1)NC(=O)C(F)(F)C(=O)C(Cc1ccc(OCc2ccccc2)cc1)NC(=O)[C@@H](NC(=O)OCc1ccccc1)C(C)C (stereo not given in full)
pIC50 [1]: 7.89
ED50 [2]: 0.24 µM
CD50 [3]: 35 µM

CC(C)[C@H](NC(=O)OCc1ccccc1)C(=O)NC(Cc1ccc(OCc2ccccc2)cc1)C(=O)C(F)(F)C(=O)N[C@@H](C(=O)OC(C)(C)C)C(C)C (stereo not given in full)
pIC50 [1]: 8.22
ED50 [2]: 0.24 µM
CD50 [3]: 6 µM

CC(C)NC(=O)C(F)(F)C(=O)C(Cc1ccc(OCc2ccccc2)cc1)NC(=O)[C@@H](NC(=O)OCc1ccccc1)C(C)C (stereo not given in full)
pIC50 [1]: 8.30
ED50 [2]: 0.32 µM
CD50 [3]: 6 µM

CC(C)[C@H](NC(=O)OCc1ccccc1)C(=O)NC(Cc1ccc(OCc2ccccc2)cc1)C(=O)C(F)(F)C(=O)NCc1ccccc1 (stereo not given in full)
ED50 [2]: 0.3 µM
CD50 [3]: > 100 µM

CC(C)[C@@H](COCc1ccccc1)NC(=O)C(F)(F)C(=O)C(Cc1ccc(OCc2ccccc2)cc1)NC(=O)[C@H](NC(=O)OCc1ccccc1)C(C)C (stereo not given in full)
pIC50 [1]: 5.70

CC(C)[C@H](COCc1ccccc1)NC(=O)C(F)(F)C(=O)C(Cc1ccc(OCc2ccccc2)cc1)NC(=O)[C@@H](NC(=O)OCc1ccccc1)C(C)C (stereo not given in full)
pEC50 [4]: 7.48
pEC50 [5]: 7.55
CC50 [6]: 25 µM
pEC50 [7]: 8.05
pEC50 [8]: 7.52
pEC50 [9]: 8.05
pEC50 [10]: 7.92
pEC50 [11]: 7.31
pKi [12]: 8.10
pEC50 [13]: 7.80
pEC50 [14]: 7.57
ED50 [2]: 0.027 µM
CD50 [3]: 100 µM
CC50 [15]: 25 µM
pEC50 [16]: 7.46
pEC50 [17]: 7.10
pEC50 [18]: 7.15
pEC50 [19]: 7.42
pEC50 [20]: 7.46
CC50 [21]: > 100 µM

Cc1cn([C@H]2C[C@H](N=[N+]=[N-])[C@@H](CO)O2)c(=O)[nH]c1=O
ED50 [2]: 0.06 µM
CD50 [3]: > 10 µM

CO[C@H](NC(=O)C(F)(F)C(=O)C(Cc1ccc(OCc2ccccc2)cc1)NC(=O)[C@@H](NC(=O)OCc1ccccc1)C(C)C)C(C)C (stereo not given in full)
pIC50 [1]: > 8.00
ED50 [2]: < 0.01 µM
CD50 [3]: 8 µM
